Data from patent publication US8445510B2, “Fused bicyclic kinase inhibitors” (OSI Pharmaceuticals, LLC, priority 2011, dated 2013).

Assays:
Type in all cases: cell-based
Karpas-299 cells = assay: Karpas-299 cell proliferation assay (CellTiter-Glo); conditions: Homo sapiens, 72 h; Karpas-299 cell line (NPM-ALK); 3 days incubation; at least duplicate experiments; read-out: Prolif. IC50
Method: The effect of inhibitors on the proliferation of Karpas-299 cells (DSMZ no. ACC 31) was determined using the following protocol. Karpas-299 cells were plated in 96-well white tissue culture treated plates (Corning 3917) in growth medium (RPMI, 10% FCS) at a density of 5000 cells/well in a total volume of 135 μL and incubated at 37° C., 5% CO2, 95% humidity overnight. The following day, one-tenth volume of a 10× concentration of compounds was added to the wells in an 8-point dilution series. Compounds were serially diluted (1:4) in DMSO from a 10 mM stock solution prior to dilution in growth media to the 10× working concentrations (5% DMSO). Final concentration of DMSO in compound-treated wells was 0.5%. Control wells containing growth media or growth media/0.5% DMSO were included in all test plates. […] Once the compounds were added to the cells, plates were incubated for 3 days at 37° C., 5% CO2 at 95% humidity. After 72 hours, all cells and reagents were equilibrated to room temperature and 15 μL of CellTiter-Glo reagent (Promega # G7573) was added to each well. Plates were shaken on a platform for 10 minutes at room temperature prior to reading luminescence. The value of the signal of the control wells was set as 100% growth and growth inhibition was expressed as percent of control. IC50 values were determined from the percent of control data using a standard four-parameter curve fit equation.
(§1) The IC50 values of exemplary compounds of the present invention determined in a cell proliferation assay using the Karpas-299 cell line according to the procedures described herein in at least duplicate experiments are abbreviated as follows and are shown in Table 5: A, IC50≦0.05 μM; B, 0.05 μM<IC50≦0.2 μM; C, 0.2 μM<IC50≦1 μM; D, IC50>1 μM; ND, not determined. The Example # of Table 5 corresponds to the compound example number as illustrated in the Examples section.
The Karpas-299 cell line has a t(2; 5) chromosomal translocation and expresses the NPM-ALK fusion protein, resulting in constitutively active ALK. […] Ther. 6(12):3314-22 (2007)]. With this “ALK-driven” cell line, the cell proliferation IC50 values can thus be used as surrogate for the p-ALK cell mechanistic IC50 values.

RON = molecular target: T1, RON (Homo sapiens, UniProt Q04912); assay: sfRON cell mechanistic assay (HeLa), phosphorylated RON ELISA; conditions: HeLa cells transfected with sfRON; inhibition of phosphorylated RON; four hours incubation; at least duplicate experiments; read-out: sfRON mech IC50
T1 sequence (Q04912 913-1400): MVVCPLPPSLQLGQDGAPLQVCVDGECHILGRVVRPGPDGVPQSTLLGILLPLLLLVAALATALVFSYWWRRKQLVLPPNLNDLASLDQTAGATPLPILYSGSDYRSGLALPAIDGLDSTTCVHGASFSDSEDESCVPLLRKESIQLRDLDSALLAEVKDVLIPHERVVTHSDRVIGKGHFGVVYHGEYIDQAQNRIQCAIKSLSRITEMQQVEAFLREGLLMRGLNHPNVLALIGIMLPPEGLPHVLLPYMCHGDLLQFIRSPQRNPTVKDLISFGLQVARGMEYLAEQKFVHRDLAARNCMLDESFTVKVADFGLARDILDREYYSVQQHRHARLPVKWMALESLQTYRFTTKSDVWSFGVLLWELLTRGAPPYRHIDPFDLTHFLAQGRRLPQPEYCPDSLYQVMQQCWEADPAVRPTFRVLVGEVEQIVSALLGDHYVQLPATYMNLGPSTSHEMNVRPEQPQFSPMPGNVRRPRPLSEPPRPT
Method: The cellular activity of the compounds of the present invention against RON may be determined by the following procedure. HeLa cells were plated in Falcon 3072 96-well plates in growth media (DMEM, 10% FBS, 1% L-glutamine) at a density of 10000 cells/well and incubated at 37° C., 5% CO2 overnight. The following day, cells were transfected with 0.2 μg sfRON-pcDNA plasmid DNA with 0.5 μL Lipofectamine-2000 per well in the presence of 50 μL OPTI-MEM, incubated at 37° C., 5% CO2 overnight. Costar 3915 96-well assay plates were coated with rabbit Anti-RON antibody at 2.0 μg/mL, sealed, and incubated overnight at 4° C. On the third day, coated plates were washed with PBS and blocked with 3% BSA. For the sfRON transfected cells, one-tenth volume of a 10× concentration of compounds was added to the wells in a 6-point dilution series. The dilution series was composed of an initial 1:5 dilution of a 10 mM DMSO stock solution of compound in DMSO, followed by a 1:10 dilution in growth media, for a final DMSO concentration on cells of 0.5%. Control wells were treated with 0.5% DMSO. The typical range of dilution was 10 μM to 3 nM. Once compound was added to the cells, plates were incubated for four hours at 37° C., 5% CO2. Plates were then washed in PBS, and lysed in triton-based lysis buffer. Lysates were transferred to the blocked capture plates. The phosphorylated RON levels were measured by incubating with a Goat polyclonal antibody against phosphorylated RON ([pYpY1238/1239]) followed by an anti-Goat antibody conjugated to HRP. Signal was measured on a Wallac Victor plate reader with luminance. The DMSO signal of the control wells was defined as 100% and the percent of inhibition of phosphorylated RON was expressed as percent of control. IC50 values were determined from the percent of control data using a standard four-parameter model.
The IC50 values of exemplary compounds of the present invention determined in a sfRON cell mechanistic assay using the HeLa cell line according to the procedures described herein in at least duplicate experiments are abbreviated as follows and are shown in Table 3: A, IC50≦0.2 μM; B, 0.2 μM<IC50≦1.0 μM; C, IC50>1 μM; ND, not determined. The Example # of Table 3 corresponds to the compound example number as illustrated in the Examples section.

MKN45 cells = assay: MKN45 cell proliferation assay (CellTiter-Glo); conditions: Homo sapiens, MKN-45, 72 h; MKN45 cell line; 3 days incubation; at least duplicate experiments; read-out: Prolif. IC50
Method: The effect of inhibitors on the proliferation of MKN45 cells was determined using the following protocol. MKN45 cells were plated in Corning 3917 96-well white tissue culture treated plates in growth medium (RPMI, 10% FCS) at a density of 5000 cells/well in a total volume of 135 μL and incubated at 37° C., 5% CO2, 95% humidity overnight. The following day, one-tenth volume of a 10× concentration of compounds was added to the wells in an 8-point dilution series. The dilution series was composed of an initial 1:5 dilution of a 10 mM stock of compound in DMSO, followed by serial 1:4 dilutions in DMSO, then a 1:20 dilution in growth medium prior to the 1:10 dilution into the cell plate. […] The typical dilution range is 10 μM to 0.6 nM. Once the compound was added to the cells, plates were incubated for 3 days at 37° C., 5% CO2 at 95% humidity. On the third day, after allowing all cells and reagents to come to room temperature, 25 μL of CellTiter-Glo reagent (Promega #G7573) was added to the wells. Plates were shaken on a platform for 10 minutes prior to reading luminescence for 0.1 seconds. The signal of the control wells was taken as 100% growth and growth inhibition was expressed as percent of control. IC50 values were determined from the percent of control data using a standard four-parameter model.
as §1, with “the MKN45” for “the Karpas-299”, “Table 2:” for “Table 5:”, “Table 2” for “Table 5”
Treatment of this cell line with a selective c-MET inhibitor led to induction of apoptosis and inhibition of proliferation, whereas non-MET-amplified cell lines were not affected [Smolen et al., Proc. Natl. Acad. Sci. USA, 103(7):2316-2321 (2006)]. This cell line is thus “driven” by c-MET, and antiproliferative effects correlate very well with the inhibition of c-MET phosphorylation so that the cell proliferation IC50, values can be used as surrogate for the c-MET cell mechanistic IC50, values. Under the assay conditions described herein, the IC50 values correlate nearly 1:1.

SMILES | IC50 (Karpas-299 cells) [nM] | IC50 (RON) [nM] | IC50 (MKN45 cells) [nM]
COc1ccc(F)c(Cl)c1[C@@H](C)c1c[nH]c2ncc(-c3cnn([C@H]4CC[C@@H](N5CCN(C(C)=O)CC5)CC4)c3C)cc12 [Example 57, 1-{4-[cis-4-(4-{3-[(1S)-1-(2-Chloro-3-fluoro-6-methoxyphenyl)ethyl]-1H-pyrrolo[2,3-b]pyridin-5-yl}-5-methyl-1H-pyrazol-1-yl)cyclohexyl]piperazin-1-yl}ethanone] | 50 to 200 | > 1000 | ≤ 50
COc1ccc(F)c(Cl)c1[C@@H](C)c1c[nH]c2ncc(-c3cnn([C@H]4CC[C@H](N)CC4)c3C)cc12 [Example 58, trans-4-(4-{3-[(1S)-1-(2-Chloro-3-fluoro-6-methoxyphenyl)ethyl]-1H-pyrrolo[2,3-b]pyridin-5-yl}-5-methyl-1H-pyrazol-1-yl)cyclohexanamine] | ≤ 50 | 200 to 1000 | ≤ 50
Cc1c(-c2cnc3[nH]cc([C@H](C)c4c(OC(F)F)ccc(F)c4Cl)c3c2)cnn1[C@H]1CC[C@@H](O)CC1 [Example 86, cis-4-[4-(3-{(1S)-1-[2-Chloro-6-(difluoromethoxy)-3-fluorophenyl]ethyl}-1H-pyrrolo[2,3-b]pyridin-5-yl)-5-methyl-1H-pyrazol-1-yl]cyclohexanol] | ≤ 50 | 200 to 1000 | ≤ 50
Cc1c(-c2cnc3[nH]cc([C@H](C)c4c(OC(F)F)ccc(F)c4Cl)c3c2)cnn1C[C@@H](O)CO [Example 87, (2R)-3-[4-(3-{(1S)-1-[2-Chloro-6-(difluoromethoxy)-3-fluorophenyl]ethyl}-1H-pyrrolo[2,3-b]pyridin-5-yl)-5-methyl-1H-pyrazol-1-yl]propane-1,2-diol] | ≤ 50 | ≤ 200 | ≤ 50
Cc1c(-c2cnc3[nH]cc([C@H](C)c4c(OC(F)F)ccc(F)c4Cl)c3c2)cnn1C1CCC(=O)CC1 [Example 88, 4-[4-(3-{(1S)-1-[2-Chloro-6-(difluoromethoxy)-3-fluorophenyl]ethyl}-1H-pyrrolo[2,3-b]pyridin-5-yl)-5-methyl-1H-pyrazol-1-yl]cyclohexanone] | ≤ 50 | 200 to 1000 | ≤ 50
Cc1c(-c2cnc3[nH]cc([C@H](C)c4c(OC(F)F)ccc(F)c4Cl)c3c2)cnn1[C@H]1CC[C@H](N(C)CC(=O)O)CC1 [Example 89, N-{trans-4-[4-(3-{(1S)-1-[2-Chloro-6-(difluoromethoxy)-3-fluorophenyl]ethyl}-1H-pyrrolo[2,3-b]pyridin-5-yl)-5-methyl-1H-pyrazol-1-yl]cyclohexyl}-N-methylglycine] | 50 to 200 | > 1000 | ≤ 50
Cc1c(-c2cnc3[nH]cc([C@H](C)c4c(OC(F)F)ccc(F)c4Cl)c3c2)cnn1[C@H]1CC[C@@H](N(C)CC(=O)O)CC1 [Example 90, N-{cis-4-[4-(3-{(1S)-1-[2-Chloro-6-(difluoromethoxy)-3-fluorophenyl]ethyl}-1H-pyrrolo[2,3-b]pyridin-5-yl)-5-methyl-1H-pyrazol-1-yl]cyclohexyl}-N-methylglycine] | 50 to 200 | > 1000 | 50 to 200
Cc1c(-c2cnc3[nH]cc([C@H](C)c4c(OC(F)F)ccc(F)c4Cl)c3c2)cnn1[C@H]1CC[C@H](N2CCC[C@H]2C(=O)O)CC1 [Example 91, 1-{trans-4-[4-(3-{(1S)-1-[2-Chloro-6-(difluoromethoxy)-3-fluorophenyl]ethyl}-1H-pyrrolo[2,3-b]pyridin-5-yl)-5-methyl-1H-pyrazol-1-yl]cyclohexyl}-L-proline] | 50 to 200 | > 1000 | 50 to 200
Cc1c(-c2cnc3[nH]cc([C@H](C)c4c(OC(F)F)ccc(F)c4Cl)c3c2)cnn1[C@H]1CC[C@@H](N2CCC[C@H]2C(=O)O)CC1 [Example 92, 1-{cis-4-[4-(3-{(1S)-1-[2-Chloro-6-(difluoromethoxy)-3-fluorophenyl]ethyl}-1H-pyrrolo[2,3-b]pyridin-5-yl)-5-methyl-1H-pyrazol-1-yl]cyclohexyl}-L-proline] | 200 to 1000 | > 1000 | 200 to 1000
